Reference: publication PMC10799935, “Discovery of a peripheral 5HT2A antagonist as a clinical candidate for metabolic dysfunction-associated steatohepatitis” (Nature Communications, 2024)
Values joined by “and” are separate entries in the source; they are usually repeats but may differ in a detail not shown here. Equal entries are not always repeated. Where two headings read alike, the source gives them in different places.

Legend:
[1] = 3weeks
[2] = tested on: HFD-fed C57BL/6J mice; experiment: DIO mice: tissue weight; assay type: in vivo, mouse; conditions: for Tissue Weight Kidney / Tissue Weight Liver / Tissue Weight Pancreas / Tissue Weight eWAT / Tissue Weight iWAT: PO; for Predicted (LS) mean diff. (Vehicle vs. 11c), Tissue Weight: Dunnett's multiple comparisons test; for Significant? (Vehicle vs. 11c), Tissue Weight: Dunnett's test, alpha 0.05; for Predicted (LS) mean 2 (11c group), Tissue Weight: test details, in g (unit assumed)
Excerpt: For in vivo efficacy in DIO models and CDAHFD models, the experimental protocol for this study was approved by the Institutional Animal Care and Use Committee (IACUC) at the Korea Advanced Institute of Science and Technology (No. KA2023-027-v2) or Kyungpook National University (No. KNU-20200134). All relevant ethical guidelines were followed. C57BL/6 J male mice (11 weeks old) were purchased from the Charles River Japan and were housed in a specific pathogen-free barrier facility under a regular light-dark cycle (12-hour light/12-hour dark) at 24°C with 40–60% humidity. Food (standard chow diet, Envigo, 2018S) and water were provided ad libitum. […] Mice were euthanized by the method of cervical dislocation. The measurement of lean and fat mass in live mice was performed by a body composition analyzer (LF50 BCA-analyzer, Bruker). After 6 h of fasting, mice were sacrificed, and tissue samples were obtained.

[3] = in vitro; conditions: African green monkey
[4] = tested on: HFD-fed C57BL/6J mice; experiment: DIO mice: blood profiling (serum cholesterol, triglyceride); assay type: in vivo, mouse; conditions: for Serum TG levels, Mean Diff. (Vehicle vs. treated) / Serum total cholesterol levels, Mean Diff. (Vehicle vs. treated) / Serum TG levels, group mean / Serum total cholesterol levels (CHO), group mean: DIO mice; for Serum TG levels, Mean Diff. (Vehicle vs. treated) / Serum total cholesterol levels, Mean Diff. (Vehicle vs. treated): Dunnett's multiple comparisons test; for Serum TG levels, group mean / Serum total cholesterol levels (CHO), group mean: PO
Protocol: Blood samples were obtained by cardiac puncture, and plasma was isolated. Blood profiling was performed by GC Pharma (Green Cross Corporation). Plasma TG and cholesterol were detected with an in vitro enzymatic colorimetric assay (CHOL2 and TRIGL; Roche, Germany) using a Cobas 8000 clinical analyzer with a c702 module (Roche).

[5] = in vitro; conditions: human, plasma
[6] = biological target: T1, 5HT4E (h) (Homo sapiens, UniProt Q13639); experiment: 5HT subtype antagonism assay (Eurofins Cerep): 5HT4E; assay type: cell-based; conditions: concentration not given
T1 construct: host or cells: CHO cells
Protocol: The derivatives were evaluated at a concentration of 1 μM for their antagonist activity on the 5HT2A receptor (Tables 1–3)[33],[34]. Human 5HT2A stably transfected HEK293 cells (a type of cell derived from kidney embryos)[20] were seeded in a 96-well plate (Costar; 3603) at a density of 9 × 10^4 in 100 μL of minimum essential medium (Welgene; LM007-86) containing 10% dialyzed fetal bovine serum (Gibco; 30067–334) and 1% penicillin/streptomycin (Gibco; 15140-122) and kept in a 37 °C incubator for 24 h. The cells were stained with 100 μL of cytosolic calcium dye using the FLIPR calcium 6 assay solution (Molecular devices, #R8190) supplemented with 2.5 mM probenecid (Sigma; P8761) and incubated for 1 h at 37 °C. After 1 h, the designated amount of the compound was treated in each well and incubated for another 1 h at 37 °C. Then, the cells were loaded in a Flexstation 3 microplate reader (Molecular Devices; FlexStaion) and 50 μL of 5 μM 5HT (serotonin hydrochloride, Sigma; H9523) was injected from a source plate (Nunc 96-well polystyrene conical bottom MicroWell Plate, Thermo; 249662) and the fluorescence intensity (Ex/Em-485nm/ 525 nm) was measured. […]
Antagonism assay Source Stimulus Incubation Measured Detection Method […]

[7] = biological target: CYP2C19 (Homo sapiens, UniProt P33261); experiment: in vitro
[8] = in vitro; conditions: mouse, plasma
[9] = DIO mice, 5mpk, individual animals, 5 mg/kg
[10] = DIO mice, 10mpk, individual animals, 10 mg/kg

T1 sequence (Q13639 1-378 isoform Q13639-5): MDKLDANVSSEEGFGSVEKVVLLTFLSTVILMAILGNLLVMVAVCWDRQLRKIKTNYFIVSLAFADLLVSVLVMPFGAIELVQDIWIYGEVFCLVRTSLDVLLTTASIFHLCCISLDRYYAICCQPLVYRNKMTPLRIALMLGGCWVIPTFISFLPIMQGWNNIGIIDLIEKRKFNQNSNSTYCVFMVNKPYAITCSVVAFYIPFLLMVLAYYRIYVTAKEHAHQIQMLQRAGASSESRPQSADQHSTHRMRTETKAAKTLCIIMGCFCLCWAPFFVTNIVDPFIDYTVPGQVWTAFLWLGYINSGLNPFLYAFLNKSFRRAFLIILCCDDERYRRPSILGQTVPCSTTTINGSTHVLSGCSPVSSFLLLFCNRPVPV
CYP2C19, sequence (P33261 whole entry): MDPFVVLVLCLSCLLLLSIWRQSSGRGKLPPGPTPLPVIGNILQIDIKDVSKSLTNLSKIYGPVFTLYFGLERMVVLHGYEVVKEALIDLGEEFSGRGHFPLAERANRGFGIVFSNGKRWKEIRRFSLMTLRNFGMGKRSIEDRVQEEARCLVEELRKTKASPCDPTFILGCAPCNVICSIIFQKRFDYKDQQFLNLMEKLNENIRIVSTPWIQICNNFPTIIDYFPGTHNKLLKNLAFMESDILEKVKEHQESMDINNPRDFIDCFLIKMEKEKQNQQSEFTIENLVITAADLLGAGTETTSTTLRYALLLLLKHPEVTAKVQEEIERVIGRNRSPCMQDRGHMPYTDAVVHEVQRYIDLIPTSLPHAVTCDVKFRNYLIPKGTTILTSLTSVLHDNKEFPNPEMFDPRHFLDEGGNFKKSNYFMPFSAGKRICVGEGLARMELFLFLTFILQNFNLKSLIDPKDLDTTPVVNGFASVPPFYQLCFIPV

Structure (SMILES): Cc1nc2n(c(=O)c1CCN1CCC(=C3c4ccc(Cl)cc4CCc4cccnc43)CC1)CCCC2O (centres unmarked) [Compound 11c]
- Chemical stability ([1]; 25 °C): 99.8%
- Chemical stability ([1]; 60 °C): 99.6%
- Tissue Weight Kidney ([2]; DIO mice, 5mpk, group mean): 0.17 g
- Tissue Weight Liver ([2]; DIO mice, 5mpk, group mean): 1.34 g
- Tissue Weight Pancreas ([2]; DIO mice, 5mpk, group mean): 0.39 g
- Tissue Weight eWAT ([2]; DIO mice, 5mpk, group mean): 1.01 g
- Tissue Weight iWAT ([2]; DIO mice, 5mpk, group mean): 1.37 g
- Tissue Weight Kidney [2, 9]: 0.166 g and 0.156 g and 0.168 g and 0.162 g and 0.198 g and 0.195 g and 0.164 g
- Tissue Weight Liver [2, 9]: 1.353 g and 1.128 g and 1.239 g and 1.293 g and 1.762 g and 1.451 g
- Tissue Weight Pancreas [2, 9]: 0.398 g and 0.353 g and 0.255 g and 0.338 g and 0.634 g and 0.394 g and 0.387 g
- Tissue Weight eWAT [2, 9]: 1.284 g and 1.045 g and 0.952 g and 0.74 g and 0.897 g and 0.939 g and 1.199 g
- Tissue Weight iWAT [2, 9]: 1.826 g and 1.295 g and 1.198 g and 1.045 g and 1.186 g and 1.418 g and 1.644 g
- Tissue Weight Kidney ([2]; DIO mice, 10mpk, group mean): 0.18 g
- Tissue Weight Liver ([2]; DIO mice, 10mpk, group mean): 1.25 g
- Tissue Weight Pancreas ([2]; DIO mice, 10mpk, group mean): 0.36 g
- Tissue Weight eWAT ([2]; DIO mice, 10mpk, group mean): 0.57 g
- Tissue Weight iWAT ([2]; DIO mice, 10mpk, group mean): 1.15 g
- Tissue Weight Kidney [2, 10]: 0.183 g and 0.162 g and 0.142 g and 0.267 g and 0.16 g
- Tissue Weight Liver [2, 10]: 1.17 g and 1.368 g and 1.031 g and 1.332 g and 1.38 g and 1.246 g
- Tissue Weight Pancreas [2, 10]: 0.302 g and 0.381 g and 0.318 g and 0.442 g and 0.387 g and 0.34 g
- Tissue Weight eWAT [2, 10]: 0.449 g and 0.747 g and 0.512 g and 0.764 g and 0.418 g
- Tissue Weight iWAT [2, 10]: 0.774 g and 1.585 g and 1.202 g and 1.593 g and 1.007 g and 0.712 g
- Tissue weight of inguinal white adipose tissue (iWAT) ([2]; DIO mice, vs vehicle): significantly decreased
- Tissue weight of liver ([2]; DIO mice, vs vehicle): significantly decreased
- Predicted (LS) mean diff. (Vehicle vs. 11c), Tissue Weight ([2]; Kidney, 5mpk): 0.01612
- Significant? (Vehicle vs. 11c), Tissue Weight ([2]; Kidney, 5mpk): No
- Predicted (LS) mean 2 (11c group), Tissue Weight ([2]; Kidney, 5mpk): 0.1727
- Predicted (LS) mean diff. (Vehicle vs. 11c), Tissue Weight ([2]; Kidney, 10mpk): 0.006
- Significant? (Vehicle vs. 11c), Tissue Weight ([2]; Kidney, 10mpk): No
- Predicted (LS) mean 2 (11c group), Tissue Weight ([2]; Kidney, 10mpk): 0.1828
- Predicted (LS) mean diff. (Vehicle vs. 11c), Tissue Weight ([2]; Liver, 5mpk): 0.2072
- Significant? (Vehicle vs. 11c), Tissue Weight ([2]; Liver, 5mpk): No
- Predicted (LS) mean 2 (11c group), Tissue Weight ([2]; Liver, 5mpk): 1.336
- Predicted (LS) mean diff. (Vehicle vs. 11c), Tissue Weight ([2]; Liver, 10mpk): 0.289
- Significant? (Vehicle vs. 11c), Tissue Weight ([2]; Liver, 10mpk): Yes
- Predicted (LS) mean 2 (11c group), Tissue Weight ([2]; Liver, 10mpk): 1.255
- Predicted (LS) mean diff. (Vehicle vs. 11c), Tissue Weight ([2]; Pancreas, 5mpk): 0.1064
- Significant? (Vehicle vs. 11c), Tissue Weight ([2]; Pancreas, 5mpk): No
- Predicted (LS) mean 2 (11c group), Tissue Weight ([2]; Pancreas, 5mpk): 0.3941
- Predicted (LS) mean diff. (Vehicle vs. 11c), Tissue Weight ([2]; Pancreas, 10mpk): 0.1388
- Significant? (Vehicle vs. 11c), Tissue Weight ([2]; Pancreas, 10mpk): No
- Predicted (LS) mean 2 (11c group), Tissue Weight ([2]; Pancreas, 10mpk): 0.3617
- Predicted (LS) mean diff. (Vehicle vs. 11c), Tissue Weight ([2]; eWAT, 5mpk): -0.00381
- Significant? (Vehicle vs. 11c), Tissue Weight ([2]; eWAT, 5mpk): No
- Predicted (LS) mean 2 (11c group), Tissue Weight ([2]; eWAT, 5mpk): 1.373
- Predicted (LS) mean diff. (Vehicle vs. 11c), Tissue Weight ([2]; eWAT, 10mpk): 0.2238
- Significant? (Vehicle vs. 11c), Tissue Weight ([2]; eWAT, 10mpk): No
- Predicted (LS) mean 2 (11c group), Tissue Weight ([2]; eWAT, 10mpk): 1.146
- Predicted (LS) mean diff. (Vehicle vs. 11c), Tissue Weight ([2]; iWAT, 5mpk): 0.08033
- Significant? (Vehicle vs. 11c), Tissue Weight ([2]; iWAT, 5mpk): No
- Predicted (LS) mean 2 (11c group), Tissue Weight ([2]; iWAT, 5mpk): 1.008
- Predicted (LS) mean diff. (Vehicle vs. 11c), Tissue Weight ([2]; iWAT, 10mpk): 0.5213
- Significant? (Vehicle vs. 11c), Tissue Weight ([2]; iWAT, 10mpk): Yes
- Predicted (LS) mean 2 (11c group), Tissue Weight ([2]; iWAT, 10mpk): 0.567
- IC50 [3]: > 100 µM
- Serum TG levels, Mean Diff. (Vehicle vs. treated) ([4]; 5mpk): 32.28 mg/dL
- Serum total cholesterol levels, Mean Diff. (Vehicle vs. treated) ([4]; 5mpk): -18.72 mg/dL
- Serum TG levels, Mean Diff. (Vehicle vs. treated) ([4]; 10mpk): 36.37 mg/dL
- Serum total cholesterol levels, Mean Diff. (Vehicle vs. treated) ([4]; 10mpk): 0.9883 mg/dL
- Serum TG levels, group mean ([4]; 5mpk): 71.94 mg/dL
- Serum total cholesterol levels (CHO), group mean ([4]; 5mpk, 5 mg/kg): 220.6 mg/dL
- Serum TG levels, group mean ([4]; 10mpk): 67.86 mg/dL
- Serum total cholesterol levels (CHO), group mean ([4]; 10mpk, 10 mg/kg): 200.9 mg/dL
- serum triglyceride levels ([4]; high-fat diet-induced NAFLD mice): significant reduction
- remaining at 4 h [5]: > 98.6%
- Selectivity 4E: % inhibition [6]: -3%
- inhibition at 10 µM [7]: 6.83%
- remaining at 4 h [8]: > 99.9%
